# Assay results from PubChem BioAssay AID1963854 (Molecular Pharmacology Branch, DTP, NCI, 2024).
# Test system: 186277-243-T-J2-PDC complex spheroid viability
# Experiment: Anticancer human tumor 186277-243-T-J2-PDC patient-derived colon adenocarcinoma cell line growth inhibition [POLQ]
# Conditions: for IC50: curve of first compound; for viability, T/C: stronger effect = lower value
# How it was run: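 Three-cell-type spheroids modelling solid tumor plus stroma served as the readout system; POL inhibitors were tested individually and in combination, concentration ranges set by clinical Cmax where known.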
# [1] = second compound 0.0316 µM, first compound 0.0316 µM
# [2] = second compound 0.0316 µM, first compound 0.1 µM
# [3] = second compound 0.0316 µM, first compound 0.316 µM
# [4] = second compound 0.0316 µM, first compound 1 µM
# [5] = second compound 0.1 µM, first compound 0.0316 µM
# [6] = second compound 0.1 µM, first compound 0.1 µM
# [7] = second compound 0.1 µM, first compound 0.316 µM
# [8] = second compound 0.1 µM, first compound 1 µM
# [9] = second compound 0.316 µM, first compound 0.0316 µM
# [10] = second compound 0.316 µM, first compound 0.1 µM
# [11] = second compound 0.316 µM, first compound 0.316 µM
# [12] = second compound 0.316 µM, first compound 1 µM
# [13] = second compound 1 µM, first compound 0.0316 µM
# [14] = second compound 1 µM, first compound 0.1 µM
# [15] = second compound 1 µM, first compound 0.316 µM
# [16] = second compound 1 µM, first compound 1 µM
# [17] = second compound 3.16 µM, first compound 0.0316 µM
# [18] = second compound 3.16 µM, first compound 0.1 µM
# [19] = second compound 3.16 µM, first compound 0.316 µM
# [20] = second compound 3.16 µM, first compound 1 µM
# [21] = second compound 10 µM, first compound 0.0316 µM
# [22] = second compound 10 µM, first compound 0.1 µM
# [23] = second compound 10 µM, first compound 0.316 µM
# [24] = second compound 10 µM, first compound 1 µM
# [25] = second compound 0.0316 µM, first compound 3.16 µM
# [26] = second compound 0.0316 µM, first compound 10 µM
# [27] = second compound 0.1 µM, first compound 3.16 µM
# [28] = second compound 0.1 µM, first compound 10 µM
# [29] = second compound 0.316 µM, first compound 3.16 µM
# [30] = second compound 0.316 µM, first compound 10 µM
# [31] = second compound 1 µM, first compound 3.16 µM
# [32] = second compound 1 µM, first compound 10 µM
# [33] = second compound 3.16 µM, first compound 3.16 µM
# [34] = second compound 3.16 µM, first compound 10 µM
# [35] = second compound 10 µM, first compound 3.16 µM
# [36] = second compound 10 µM, first compound 10 µM
# 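Also: spheroids exposed to compounds for seven days.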
# 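For viability, T/C in this document: 100% = DMSO vehicle control viability.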
smiles,measurement,setting,value
C=CCn1c(=O)c2cnc(Nc3ccc(N4CCN(C)CC4)cc3)nc2n1-c1cccc(C(C)(C)O)n1 + Cc1cccc(N(C)C(=O)C2C(O)CCN2c2nc(C)cc(C(F)(F)F)c2C#N)c1,IC50,second compound 0.0316 µM,213 nM
same,IC50,second compound 0.1 µM,230 nM
same,IC50,second compound 0.316 µM,220 nM
same,IC50,second compound 1 µM,226 nM
same,IC50,second compound 3.16 µM,223 nM
same,IC50,second compound 10 µM,224 nM
same,"viability, T/C","second compound 0.0316 µM, first compound 0.00316 µM",107%
same,"viability, T/C","second compound 0.0316 µM, first compound 0.01 µM",102%
same,"viability, T/C",[1],88.4%
same,"viability, T/C",[2],96.3%
same,"viability, T/C",[3],25.9%
same,"viability, T/C",[4],12.5%
same,"viability, T/C","second compound 0.1 µM, first compound 0.00316 µM",99.1%
same,"viability, T/C","second compound 0.1 µM, first compound 0.01 µM",112%
same,"viability, T/C",[5],95.3%
same,"viability, T/C",[6],106%
same,"viability, T/C",[7],29.6%
same,"viability, T/C",[8],13.7%
same,"viability, T/C","second compound 0.316 µM, first compound 0.00316 µM",88.1%
same,"viability, T/C","second compound 0.316 µM, first compound 0.01 µM",99.4%
same,"viability, T/C",[9],103%
same,"viability, T/C",[10],111%
same,"viability, T/C",[11],26.6%
same,"viability, T/C",[12],13.8%
same,"viability, T/C","second compound 1 µM, first compound 0.00316 µM",102%
same,"viability, T/C","second compound 1 µM, first compound 0.01 µM",119%
same,"viability, T/C",[13],104%
same,"viability, T/C",[14],110%
same,"viability, T/C",[15],25.7%
same,"viability, T/C",[16],12.5%
same,"viability, T/C","second compound 3.16 µM, first compound 0.00316 µM",119%
same,"viability, T/C","second compound 3.16 µM, first compound 0.01 µM",95.7%
same,"viability, T/C",[17],102%
same,"viability, T/C",[18],131%
same,"viability, T/C",[19],22.8%
same,"viability, T/C",[20],16.8%
same,"viability, T/C","second compound 10 µM, first compound 0.00316 µM",116%
same,"viability, T/C","second compound 10 µM, first compound 0.01 µM",102%
same,"viability, T/C",[21],106%
same,"viability, T/C",[22],106%
same,"viability, T/C",[23],24.7%
same,"viability, T/C",[24],12.8%
COc1cccc2c1C(=O)c1c(O)c3c(c(O)c1C2=O)CC(O)(C(=O)CO)CC3OC1CC(N)C(O)C(C)O1 (stereo not drawn) + Nc1ccc(C#CCN(C(=O)Cc2ncc(C(F)(F)F)cc2C(F)(F)F)c2ccc(F)cc2)nn1,IC50,second compound 0.0316 µM,255 nM
same,IC50,second compound 0.1 µM,253 nM
same,IC50,second compound 0.316 µM,258 nM
same,IC50,second compound 1 µM,236 nM
same,IC50,second compound 3.16 µM,231 nM
same,IC50,second compound 10 µM,173 nM
same,"viability, T/C",[1],144%
same,"viability, T/C",[2],110%
same,"viability, T/C",[3],37.2%
same,"viability, T/C",[4],1.35%
same,"viability, T/C",[25],0.27%
same,"viability, T/C",[26],1.66%
same,"viability, T/C",[5],169%
same,"viability, T/C",[6],107%
same,"viability, T/C",[7],39%
same,"viability, T/C",[8],1.35%
same,"viability, T/C",[27],0.37%
same,"viability, T/C",[28],1.4%
same,"viability, T/C",[9],156%
same,"viability, T/C",[10],106%
same,"viability, T/C",[11],40.7%
same,"viability, T/C",[12],1.12%
same,"viability, T/C",[29],1.33%
same,"viability, T/C",[30],0.64%
same,"viability, T/C",[13],171%
same,"viability, T/C",[14],106%
same,"viability, T/C",[15],32.5%
same,"viability, T/C",[16],1.58%
same,"viability, T/C",[31],1.81%
same,"viability, T/C",[32],2.38%
same,"viability, T/C",[17],153%
same,"viability, T/C",[18],101%
same,"viability, T/C",[19],32.4%
same,"viability, T/C",[20],0.94%
same,"viability, T/C",[33],1.21%
same,"viability, T/C",[34],1.74%
same,"viability, T/C",[21],131%
same,"viability, T/C",[22],76.4%
same,"viability, T/C",[23],21.8%
same,"viability, T/C",[24],1.09%
same,"viability, T/C",[35],1.27%
same,"viability, T/C",[36],0.63%
C=CC(=O)N1CCN(c2nc(=O)n(-c3c(C)ccnc3C(C)C)c3nc(-c4c(O)cccc4F)c(F)cc23)C(C)C1 (stereo not drawn) + Cc1cccc(N(C)C(=O)C2C(O)CCN2c2nc(C)cc(C(F)(F)F)c2C#N)c1,IC50,second compound 0.0316 µM,> 10000 nM
same,IC50,second compound 0.1 µM,> 10000 nM
same,IC50,second compound 0.316 µM,> 10000 nM
same,IC50,second compound 1 µM,> 10000 nM
same,IC50,second compound 3.16 µM,> 10000 nM
same,IC50,second compound 10 µM,> 10000 nM
same,"viability, T/C",[1],92.8%
same,"viability, T/C",[2],101%
same,"viability, T/C",[3],82.2%
same,"viability, T/C",[4],90.9%
same,"viability, T/C",[25],99.5%
same,"viability, T/C",[26],103%
same,"viability, T/C",[5],106%
same,"viability, T/C",[6],98.6%
same,"viability, T/C",[7],103%
same,"viability, T/C",[8],84.7%
same,"viability, T/C",[27],107%
same,"viability, T/C",[28],104%
same,"viability, T/C",[9],90.4%
same,"viability, T/C",[10],91.5%
same,"viability, T/C",[11],102%
same,"viability, T/C",[12],99.5%
same,"viability, T/C",[29],112%
same,"viability, T/C",[30],102%
same,"viability, T/C",[13],99.8%
same,"viability, T/C",[14],108%
same,"viability, T/C",[15],98.6%
same,"viability, T/C",[16],96.2%
same,"viability, T/C",[31],108%
same,"viability, T/C",[32],101%
same,"viability, T/C",[17],106%
same,"viability, T/C",[18],99%
same,"viability, T/C",[19],84%
same,"viability, T/C",[20],106%
same,"viability, T/C",[33],111%
same,"viability, T/C",[34],103%
same,"viability, T/C",[21],97.9%
same,"viability, T/C",[22],106%
same,"viability, T/C",[23],108%
same,"viability, T/C",[24],102%
same,"viability, T/C",[35],97.3%
same,"viability, T/C",[36],95.9%
CC1COCCN1c1cc(C2(S(C)(=N)=O)CC2)nc(-c2ccnc3[nH]ccc23)n1 (stereo not drawn) + Cc1cccc(N(C)C(=O)C2C(O)CCN2c2nc(C)cc(C(F)(F)F)c2C#N)c1,IC50,second compound 0.0316 µM,861 nM
same,IC50,second compound 0.1 µM,800 nM
same,IC50,second compound 0.316 µM,827 nM
same,IC50,second compound 1 µM,842 nM
same,IC50,second compound 3.16 µM,799 nM
same,IC50,second compound 10 µM,784 nM
same,"viability, T/C",[1],102%
same,"viability, T/C",[2],102%
same,"viability, T/C",[3],99%
same,"viability, T/C",[4],42.6%
same,"viability, T/C",[25],8.14%
same,"viability, T/C",[26],6.1%
same,"viability, T/C",[5],99.1%
same,"viability, T/C",[6],103%
same,"viability, T/C",[7],109%
same,"viability, T/C",[8],37.1%
same,"viability, T/C",[27],8.3%
same,"viability, T/C",[28],5.32%
same,"viability, T/C",[9],117%
same,"viability, T/C",[10],105%
same,"viability, T/C",[11],103%
same,"viability, T/C",[12],39.6%
same,"viability, T/C",[29],7.67%
same,"viability, T/C",[30],6.8%
same,"viability, T/C",[13],97%
same,"viability, T/C",[14],104%
same,"viability, T/C",[15],107%
same,"viability, T/C",[16],40.7%
same,"viability, T/C",[31],7.51%
same,"viability, T/C",[32],5.6%
same,"viability, T/C",[17],108%
same,"viability, T/C",[18],108%
same,"viability, T/C",[19],106%
same,"viability, T/C",[20],35.9%
same,"viability, T/C",[33],8.67%
same,"viability, T/C",[34],6.42%
same,"viability, T/C",[21],102%
same,"viability, T/C",[22],111%
same,"viability, T/C",[23],108%
same,"viability, T/C",[24],34.7%
same,"viability, T/C",[35],7.11%
same,"viability, T/C",[36],5.36%
